According to ChEMBL document CHEMBL3507680, “University of Dundee, Gates Library screen for HepG2 cell viability”:

Experiment: Human HepG2 cell viability assay in 384 well format
Type: toxicity, cell-based
Set-up: dose 125 nL, time 70.5 hour; cytotoxicity at 70.5 h: concentration not given beside the values
Conditions: HepG2 cells, read-out: Inhibition

Compound | cytotoxicity at 70.5 h [%]
CCC(CNS(C)(=O)=O)Oc1ccccc1F (stereo unspecified) | -6.95
Cn1cc(CNCCC(=O)NCc2ccccc2)c(-c2cccnc2)n1 | 2.26
Cn1cc(CNCC2(O)CCCCC2)c(-c2cccnc2)n1 | -4.88
CCC(NCc1ccccn1)c1ccccc1OCC(=O)NC (stereo unspecified) | -3.93
CC(C)N(Cc1ccc(Cl)c(Cl)c1)C(=O)Cn1cncn1 | 1.18
Cc1cccn2cc(CNCc3cccc4c3OCCCO4)nc12 | 8.14
O=c1n(CCSCCOc2ccc(Br)cc2)nc2ccccn12 | -10.7
Cc1cc(C(=O)CN2CCN(c3cnccn3)CC2)c(C)n1C(C)C | -10.7
O=C(c1cccnc1O)N(CCO)Cc1cc(Br)ccc1F | -9.73
NC(=O)C1CCN(C(=O)c2ccc(Sc3ccccn3)cc2)CC1 | -2.31
CC(=O)NCC1CCN(C(=O)c2ccc(Sc3ccccn3)cc2)CC1 | -16.7
CC(=O)N1CCN(C(=O)c2ccc(Sc3ccccn3)cc2)CC1 | -14
Cc1cccc(OCCSCCn2nc3ccccn3c2=O)c1 | -11
Cc1cc(OC(F)F)c(C(=O)N2CCN(C3CC3)CC2)s1 | -8.34
COCCC(Cc1cccc(Br)c1)C(=O)N(C)C (stereo unspecified) | -0.534
COCCC(Cc1cccc(Br)c1)C(=O)NCC(N)=O (stereo unspecified) | -9.6
Cc1nn(C)c(C)c1Cc1nc(N(C)C)no1 | -0.362
COC(=O)CN(C(=O)c1cc(C(C)C)no1)c1cccc(F)c1 | -8.3
Cc1noc2ncc(S(=O)(=O)N3CCCC(C)(C)CC3)cc12 | -2.62
COc1cc(NC(=O)N2CCCC2c2nncn2C)ccc1Br (stereo unspecified) | -4.18
CC(C)CC(CO)NC(=O)NCc1csc(N(C)C)n1 (stereo unspecified) | 0.865
CCOCc1ccc(NC(=O)N2CCCC2c2nncn2C)cc1 (stereo unspecified) | -6.88

Compound | cytotoxicity at 70.5 h [%]
COc1ccc(Cn2nnnc2SCC2CCCN(C)C2)cc1 (stereo unspecified) | -8.49
Cc1cc(OC(F)F)c(C(=O)N2CCC(CN(C)C)CC2)s1 | -5.68
COCCC(Cc1cccc(Br)c1)C(=O)O (stereo unspecified) | -5.16
COCc1noc(Cc2c(C)nn(C)c2C)n1 | -2.81
O=C(NCCC(=O)N1CCCC1)c1ccc(SCc2cccnc2)cc1 | -8.9
N#CCc1ccc(OCC(=O)NS(=O)(=O)c2cccs2)cc1 | 1.77
CC1CN(c2ccc(CNC(=O)NCc3ccoc3)cn2)CCO1 (stereo unspecified) | -5.8
CC1CN(c2ccc(CNC(=O)NCCn3ccnc3)cn2)CCO1 (stereo unspecified) | -16.7
O=C(NCCn1ccnc1)NCc1ccc(N2CCCCCC2)nc1 | -14.2
CCc1sc(C(=O)Nc2cnn(CC(N)=O)c2)cc1C | 14.8
CN(C)C(=O)c1ccc(CNc2c(Cl)cccc2C#N)cc1 | 3.41
Cn1cc(C(C)(O)CNc2ccc(C(F)(F)F)cn2)cn1 (stereo unspecified) | -1.94
O=C(CN1CCCC(c2ccn[nH]2)C1)Nc1nncs1 (stereo unspecified) | 1.3
CN(C(=O)C(c1c(F)cccc1Cl)N(C)C)c1nccs1 (stereo unspecified) | 3.15
Cc1cc(CNc2ccnn2C)ccc1-n1cncn1 | -1.29
CCc1cc(NCc2ccc(-n3cncn3)c(C)c2)n(C)n1 | 2.61
CC(=O)Nc1sccc1C(=O)C(C)(C)C | 16.1
CNC(=O)COc1ccc(CNc2c(Cl)cccc2C#N)cc1 | -2.72
COc1ccnc(NC(=O)CSCc2cccnc2)c1 | -1.54
Cc1ncsc1C(=O)N(C)Cc1ccc(Br)o1 | 20.1
O=C(NCCc1ccccc1)N1CCCCC1C1OCCO1 (stereo unspecified) | -1.28
COCCCNC(=O)C(C)(C)N(C)C1CCCC1 | -0.184

Compound | cytotoxicity at 70.5 h [%]
O=C(CN1CCCC(c2ccn[nH]2)C1)Nc1nc2c(s1)CCC2 (stereo unspecified) | -2.76
Cc1ccc2cc(C(=O)N3CCCN(C)CC3)ccc2n1 | -2.19
CC(CS(C)(=O)=O)NCc1cc(Cl)ccc1F (stereo unspecified) | 19.9
CC(C)N(CC(N)=O)CC(=O)N(C1=CCCCC1)C1CC1 | 3.33
CC1CCCN1C1CCN(C(=O)c2cccc(F)c2)CC1 (stereo unspecified) | 6.94
COc1ccc(Cc2nnc3n2N=C(C(C)(C)C)CS3)cc1 | 8.14
c1ccc2[nH]c(C3CCN(Cc4nnc(C5CC5)o4)CC3)cc2c1 | -12.6
CCCN(C)c1ccc(C(=O)NCc2ccnc(C)n2)cc1 | -10
Cc1ccc(NC(=O)CN2CCCNC2=O)c(SC(F)(F)F)c1 | -7.48
CCOc1ccc(C#N)cc1NC(=O)N1CCC(N2CCCC2)C1 (stereo unspecified) | -9.59
CCCC1CCCN(C(=O)Nc2ccnc(C(=O)N(C)C)c2)CC1 (stereo unspecified) | -6.22
Cc1ccc(C2CSCCN2CC(=O)N2CCOCC2)cc1 (stereo unspecified) | -5.8
Cc1nc2ncnn2c(C)c1CCC(=O)Nc1cccn(C)c1=O | -15.3
Cc1nn(C)c(C)c1CCC(=O)Nc1cccn(C)c1=O | -3.26
Cc1noc(C)c1CNS(=O)(=O)N(C)Cc1ccc(Cl)cc1 | -5.95
CNC(=O)C(C)CN(C)C(=O)Nc1cc(-n2cccc2)ccc1F (stereo unspecified) | -3.24
CN(CC(O)C1CC1)C(=O)Nc1ccc(F)c(-n2cccc2)c1 (stereo unspecified) | -2.43
Cc1cc(CCC(=O)N2CC[C@H](O)C2)ccc1Br | 1.1
CC(C#N)CN(C)C(=O)c1cn(-c2ccc(Br)cc2)cn1 (stereo unspecified) | -1.57
CNC(=O)C(C)CN(C)C(=O)Nc1ccc(F)c(-n2cccc2)c1 (stereo unspecified) | 0.178
Cc1noc(C)c1CNS(=O)(=O)N(C)Cc1ccccc1Br | -9.08
Cc1ncsc1CN(C)C(=O)CC1CCOc2ccccc21 (stereo unspecified) | 22.4

Compound | cytotoxicity at 70.5 h [%]
CC(NCc1cccc(S(=O)(=O)N(C)C)c1)c1cccnc1 (stereo unspecified) | -3.39
O=C(CN1CCN(C(=O)c2cccc(-c3ccoc3)c2)CC1)C1CC1 | -5.66
CN(Cc1ccccn1)C(=O)CC1CCOc2ccccc21 (stereo unspecified) | -8.29
CN(CC(=O)N1CCCC1)Cc1nc2c(cnn2C)c(=O)[nH]1 | -10.6
CCN(CC)C(=O)CN(C)Cc1nc2c(cnn2C)c(=O)[nH]1 | -10.6
CC(C)C(=O)Nc1ncn(Cc2cccc(Br)c2)n1 | -9.36
CCc1nnc2n1CCN(C(=O)c1ccc3c(c1)NC(=O)CO3)C2 | -1.73
Cn1cnc2c1CCN(CCCOc1ccc(S(C)(=O)=O)cc1)C2 | -11.2
CC(C)c1nnc2n1CCN(C(=O)c1ccc3c(c1)COC3)C2 | -0.783
CSCC(=O)Nc1ncn(Cc2cccc(Br)c2)n1 | -8.51
Cn1cnc2c1CCN(CC(O)c1ccc3c(c1)OCCO3)C2 (stereo unspecified) | 9.43
Cc1cc(C)n(CC2CCCN2C(=O)Cc2csc(C)n2)n1 (stereo unspecified) | -1.11
Cn1cnc2c1CCN(CC(O)c1ccc(S(C)(=O)=O)cc1)C2 (stereo unspecified) | -8.26
O=C(O)c1ccc(S(=O)(=O)Nc2ccccc2F)c(F)c1 | -11
Cc1cc(C)c(S(=O)(=O)Nc2ccccc2CC(F)(F)F)cc1C(=O)O | -8.62
CNC(=O)Cc1noc(Cc2ccc3c(c2)CCCC3)n1 | 12.5
Cc1ccc(Cl)c2c1C1(NC(=O)c3cccnc3N1)C(=O)N2 (stereo unspecified) | -5.73
Cn1cc(NC(=O)Nc2ccccn2)cc(Cl)c1=O | 9.47
COC(=O)c1ccc(N(C)C2CCC2)nn1 | -5.28
N#Cc1ccc(CNCC2(c3ccccc3)CCOCC2)cc1 | -12
